Read-outs that look alike come from different tables or passages of the source.
Tests used:
[1] = Solubility by visual inspection (DMSO stock solution and assay medium); assay type: physicochemical; details: assay medium
Method: The SOPs relied on visual inspection for solubility observation. […] The absence of precipitation in the medium was checked pre- and post-incubation (24 hours) by centrifugation of the sample and observation of any precipitation (pellet residue).

[2] = Solubility by nephelometry (EURL ECVAM); assay type: physicochemical; details: for HepaRG medium stability / PHH medium stability: ECVAM nephelometry, ^2 = solubility limit
How it was run: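 Turbidity from insolubility detected by laser nephelometry (Tyndall light scatter). Formazin standards at 1, 5, 10 and 20 NTU used to calculate relative turbidity; 1 NTU equals solvent/medium blank background, with sensitivity to 5 NTU.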

HepaRG cells = test: Cytotoxicity assay (resazurin) in HepaRG cells, 48 hours; assay type: cell-based, human; details: viability reduction <10%
Method: (§1) Potential cytotoxicity of the validation set chemicals for PHH and HepaRG cells was determined starting from the highest soluble concentration, followed by a 1:1 or 1:3 dilution for PHH and HepaRG cells, respectively. The incubation time reflected the conditions used for the induction assays (72 hours and 48 hours of incubation for PHH and HepaRG cells, respectively). The cytotoxicity assay was based on the conversion of redox dye resazurin to fluorescent resorufin by living cells. Non-viable cells, without metabolic capacity, yield no fluorimetry signal.
(§2) Results were expressed as fractional survival (FS %) with respect to untreated controls and were calculated based on measured relative fluorescent units (RFU), corrected for the background signal: %FS=RFUtreated cells−meanRFUbackground/RFUuntreated cells−meanRFUbackgroundx100
(§3) Cytotoxicity was evaluated from the dose-response curve, where the mean FS (%) of three technical replicates was plotted versus the corresponding concentration.
(§4) The SOP acceptance criteria required a cell viability of 50-70 % for doxorubicin (8 μM, HepaRG cells) and ≤70 % for chlorpromazine (25 μM, PHH), the cytotoxicity reference items. The highest concentration with viability reduction <20% (PHH) or <10% (HepaRG) was eligible as starting concentration for the induction assay.

PHH = test: Cytotoxicity assay (resazurin) in PHH, 72 hours; assay type: cell-based, human; details: viability reduction <20%
Method: as §1, §2, §3, §4

CYP1A2 [3] = details: cited from earlier work; for CYP induction in vivo literature reference: CYP1A2: human in vivo, CYP named without remark = induced, ref references in the cell, Washington University database, Hoffmann et al. (2014), Pelkonen et al. (2008), Hukkanen et al. (2012)
CYP = CYP isoforms induced; ref Abadie et al. (2009), Richert et al. (2010), Preissner et al. (2010), Hoffmann et al. (2014); cited from earlier work
CYP1A2 [4] = test: CYP1A2 enzyme induction assay in cryopreserved primary human hepatocytes (PHH); assay type: in vitro ADME; details: for Assigned classification CYP1A2: PHH
CYP2B6 = CYP2B6 enzyme induction assay in cryopreserved primary human hepatocytes (PHH); assay type: in vitro ADME; details: for Assigned classification CYP2B6: PHH
CYP3A4 [5] = system: CYP3A4
[6] = cited from earlier work
CYP3A4 [7] = details: in vivo; cited from earlier work

Molecule OCc1c[nH]c2ccccc12 [Indole-3-carbinol] has a HepaRG medium stability ([1]; Lab 1, visual observation) of 5 µg/mL, a HepaRG medium stability ([1]; Lab 2, visual observation) of 10 µg/mL and a HepaRG medium stability ([1]; Lab 3, visual observation) of 10 µg/mL. For the same molecule, the PHH medium stability ([1]; Lab 4, visual observation) was 10 µg/mL, the PHH medium stability ([1]; Lab 5, visual observation) was 20 µg/mL and the PHH medium stability ([1]; Lab 6, visual observation) was 20 µg/mL. For the same molecule, the “nephelometry finding in assay medium” value ([2]; 40 μg/ml, the two media) was “insoluble suspensions”, the HepaRG medium stability [2] was 10^2 μg/mL and the PHH medium stability [2] was 10^2 μg/mL. For the same molecule, the “highest soluble non cytotoxic concentration used for the subsequent induction assay, HepaRG” value (HepaRG cells) was “insoluble (excluded)”, the “highest soluble non cytotoxic concentration used for the subsequent induction assay, PHH” value (PHH) was “insoluble (excluded)” and the “CYP induction in vivo literature reference: CYP1A2” value (CYP1A2 [3]) was “CYP 1A2 ([Reed et al., 2005]) CYP2B6/CYP3A4 NO studies”. For the same molecule, the “CYP induction in vitro (human hepatocytes)” value (CYP) was “CYP1A2”.

In the case of CO[C@H]1/C=C/O[C@@]2(C)Oc3c(C)c(O)c4c(c3C2=O)C2=NC3(CCN(CC(C)C)CC3)NC2=C(NC(=O)/C(C)=C\C=C\[C@H](C)[C@H](O)[C@@H](C)[C@@H](O)[C@@H](C)[C@H](OC(C)=O)[C@@H]1C)C4=O [Rifabutin], the “Prediction in vivo inducer” value (CYP1A2 [4]; CYP1A2, PHH, Cmax/F2 >0.5 criterion) is reported as “No”, the F2 (CYP1A2 [4]; CYP1A2, PHH, in vitro concentration producing 2-fold induction) is reported as 2.2 to 6.7 µM and the Induction in vitro (CYP1A2 [4]; CYP1A2, PHH, positive in one donor in each of the three laboratories) is reported as “Yes”. For the same molecule, the “Assigned classification CYP1A2” value (CYP1A2 [4]; Lab 1, batch 0 6 A) was 1, the “Assigned classification CYP1A2” value (CYP1A2 [4]; Lab 1, batch 4 0 8) was 1 and the “Assigned classification CYP1A2” value (CYP1A2 [4]; Lab 1, batch 8 0 8) was 0. The “Assigned classification CYP1A2” value (CYP1A2 [4]; Lab 2, batch 0 6 A) was 0, the “Assigned classification CYP1A2” value (CYP1A2 [4]; Lab 2, batch 4 0 8) was 0 and the “Assigned classification CYP1A2” value (CYP1A2 [4]; Lab 2, batch 8 0 8) was 1. The “Assigned classification CYP1A2” value (CYP1A2 [4]; Lab 3, batch 0 6 A) was 1, the “Assigned classification CYP1A2” value (CYP1A2 [4]; Lab 3, batch 4 0 8) was 0 and the “Assigned classification CYP1A2” value (CYP1A2 [4]; Lab 3, batch 8 0 8) was 0. The F2 (CYP2B6; CYP2B6, PHH) was 0.29 to 0.87 µM, the Induction in vitro (CYP2B6; CYP2B6, PHH) was “induced CYP2B6 and Yes” and the “Prediction in vivo inducer” value (CYP2B6; CYP2B6, PHH) was “Yes”. The “Assigned classification CYP2B6” value (CYP2B6; Lab 1, batch 0 6 A) was 1, the “Assigned classification CYP2B6” value (CYP2B6; Lab 1, batch 4 0 8) was 0 and the “Assigned classification CYP2B6” value (CYP2B6; Lab 1, batch 8 0 8) was 1. For the same molecule, the “Assigned classification CYP2B6” value (CYP2B6; Lab 2, batch 0 6 A) was 0, the “Assigned classification CYP2B6” value (CYP2B6; Lab 2, batch 4 0 8) was 0 and the “Assigned classification CYP2B6” value (CYP2B6; Lab 2, batch 8 0 8) was 1. For the same molecule, the “Assigned classification CYP2B6” value (CYP2B6; Lab 3, batch 0 6 A) was 1, the “Assigned classification CYP2B6” value (CYP2B6; Lab 3, batch 4 0 8) was 1 and the “Assigned classification CYP2B6” value (CYP2B6; Lab 3, batch 8 0 8) was 1. For the same molecule, the HepaRG medium stability ([1]; Lab 1, visual observation) was 40 µg/mL, the HepaRG medium stability ([1]; Lab 2, visual observation) was 20 µg/mL and the HepaRG medium stability ([1]; Lab 3, visual observation) was 40 µg/mL. The PHH medium stability ([1]; Lab 4, visual observation) was 40 µg/mL, the PHH medium stability ([1]; Lab 5, visual observation) was 40 µg/mL and the PHH medium stability ([1]; Lab 6, visual observation) was 40 µg/mL. The HepaRG medium stability [2] was 40 µg/mL, the PHH medium stability [2] was 40 µg/mL and the Induction in vitro (CYP3A4 [5]) was “Yes”. The “Prediction in vivo inducer” value (CYP3A4 [5]) was “Yes”, the “Summary predictive capacity, CYP3A4 induction (Y/N)” value (CYP3A4 [5]; hepatocytes) was “Y” and the Cmax/F2 (CYP3A4 [5]; human) was 4.4. For the same molecule, the F2 (CYP3A4 [5]; human) was 0.1 µM, the Induction in vivo (CYP1A2 [3]; CYP1A2, human, ref Table 1) was “No” and the “CYP induction in vivo literature reference: CYP1A2” value (CYP1A2 [3]) was “CYP1A2 NOT induced ([Gillum et al., 1996]) CYP2B6 NO studies CYP3A4 ([Horita and Doi, 2014]; [Barditch-Crovo et al., 1999])”. The Cmax ([6]; human in vivo plasma concentration, normal dose) was 440 nM, the Cmax ([6]; human in vivo, normal dose (Table 10)) was 440 nM and the “CYP induction in vitro (human hepatocytes)” value (CYP) was “CYP1A2, CYP3A4”. For the same molecule, the “CYP induction in vivo literature reference: CYP3A4” value (CYP3A4 [7]) was “CYP1A2 NOT induced ([Gillum et al., 1996]) CYP2B6 NO studies CYP3A4 ([Horita and Doi, 2014]; [Barditch-Crovo et al., 1999])” and the Induction in vivo (CYP3A4 [7]) was “Yes”.

Source: publication PMC6718736, “Validation of in vitro methods for human cytochrome P450 enzyme induction: Outcome of a multi-laboratory study” (Toxicology in Vitro, 2019)
